This note sets out measurements from patent USRE48461E1, “Modulation of androgen receptor expression” (Ionis Pharmaceuticals, Inc., priority 2012, dated 2021).

What all share (format): cell-based, human
One data set has as its system C4-2B cells. In words: C4-2B cell proliferation, ASO in combination with MDV3100 (Example 19). The following applies: for inhibition at 1 µM: Homo sapiens, PBS (no ASO) + MDV3100 1 μM, read-out: Percent inhibition of C4-2B cell proliferation. How it is done:
C4-2B cells were plated at 1,500 cells per well. […] ISIS 347526 was included as a negative control. […] After a treatment period of 6 days, the proliferative capacity of the cancer cells was measured with CellTiter 96® AQueous One Solution Cell Proliferation kit (Promega), following the manufacturer's instructions. Results are presented in Table 46 as percent inhibition of proliferation, relative to non-treated cells. Treatment of the cells with ISIS 549372 or ISIS 549458 reduced proliferation of the cells more extensively than treatment with ISIS 554221.

Data set [1] has as its system TMPRSS2 mRNA. In words: TMPRSS2 expression in 22RV1 cells. The following applies: 48 hrs. How it is done:
Cells were plated at 1,000 cells per well. […] After an incubation period of 48 hrs, RNA levels of full length AR, the V7 variant, PSA and TMPRSS2 were measured.
After an incubation period of 48 hrs, RNA levels of full length AR, the V7 variant, PSA and TMPRSS2 were measured.
Cells were plated at 2,000 cells per well and cultured in CSS media for 16 hours. […] After 4 hrs, 1 nM DHT was added. […] After an incubation period of 48 hrs, RNA levels of AR, AR V7 variant, PSA and TMPRSS2 were measured.

The test system of data set [2] is TMPRSS2 mRNA. Nature of the data set: TMPRSS2 expression in LNCaP cells (complete, CSS+DHT medium). The following applies: for Percent inhibition of TMPRSS2 expression in LNCaP cells cultured in CSS + DHT medium: CSS + DHT (1 nM) medium, 48 hrs; for Percent inhibition of TMPRSS2 expression in LNCaP cells cultured in complete medium: 48 hours. How it is done: Cells were plated at 1,000 cells per well. […] ISIS 549148 was included as a negative control. […] After an incubation period of 48 hours, RNA levels of AR, PSA and TMPRSS2 were measured.
Cells were plated at 2,000 cells per well and cultured in phenol red-free RPMI supplemented with 5% charcoal stripped serum (Gibco) media for 16 hours. […] ISIS 549148 was included as a negative control. […] After an incubation period of 4 hrs, DHT was added to the medium to a final concentration of 1 nM as indicated. RNAs were collected 48 hrs later and levels of AR, PSA and TMPRSS2 were measured. In the absence of DHT, AR expression in LNCaP cells was 95%, PSA expression was 7% and TMPRSS2 expression was 24% compared to the untreated control.

Another data set relates to PSA mRNA. Nature of the data set: PSA expression in C4-2B cells (Example 30). The following applies: 48 hrs. How it is done:
Cells were plated at 1,000 cells per well. […] ISIS 549148 was included as a negative control. […] After an incubation period of 48 hrs, RNA levels of AR, PSA and TMPRSS2 were measured.
Cells were plated at 2,000 cells per well and cultured in CSS media with 1 nM DHT. […] ISIS 549148 was included as a negative control. […] After an incubation period of 48 hrs, RNA levels of AR, PSA and TMPRSS2 were measured. In the absence of DHT, AR expression in C4-2 cells was 188%, PSA expression was 43% and TMPRSS2 expression was 27% compared to the untreated control.

A further data set has as its system 22RV1 cells. Nature of the data set: 22RV1 cell proliferation, ASO in combination with MDV3100 (Example 22). The following applies: Homo sapiens, 22Rv1, read-out: inhibited proliferation, MDV3100 with control oligonucleotide ISIS 549148. How it is done: 22RV1 cells were plated at 2,000 cells per well in 5% CSS medium for 48 hours. […] ISIS 549148 was included as a negative control. […] After a treatment period of 3 days, the proliferative capacity of the cancer cells was measured with CellTiter 96® AQueous One Solution Cell Proliferation kit (Promega), following the manufacturer's instructions. Results are presented in Tables 58-62 as percent inhibition of proliferation, relative to non-treated cells.

Data set [3] relates to TMPRSS2 mRNA. Nature of the data set: TMPRSS2 expression in C4-2 cells. The following applies: 48 hrs; for Percent inhibition of TMPRSS2 expression: C4-2 cells, CSS + DHT medium. How it is done: Cells were plated at 1,000 cells per well. […] After an incubation period of 48 hrs, RNA levels of AR, PSA and TMPRSS2 were measured.
Cells were plated at 2,000 cells per well and cultured in CSS media with 1 nM DHT. […] After an incubation period of 48 hrs, RNA levels of AR, PSA and TMPRSS2 were measured.

Read-outs that look alike come from different tables or passages of the source.

Turning to “GTTGATTTAATGGTTG (all phosphorothioate, sugars by position not given here; further chemistry not fully specified) [ISIS 549458]”, the “Percent inhibition of C4-2B cell proliferation with 0.1 μM ASO” value came out at 75% with C4-2B cells (0.1 μM ASO + MDV3100 1 μM, 6 days); 59% with C4-2B cells (0.1 μM ASO + MDV3100 […], 6 days); 39% with C4-2B cells (0.1 μM ASO, MDV3100 0 μM, 6 days). Moreover, the “Percent inhibition of C4-2B cell proliferation with 0.2 μM ASO” value in the data set on C4-2B cells (0.2 μM ASO + MDV3100 1 μM, 6 days) came to 79%; with C4-2B cells (0.2 μM ASO + MDV3100 […], 6 days) it was 75%; with C4-2B cells (0.2 μM ASO, MDV3100 0 μM, 6 days), 74%. Besides, in the data set on C4-2B cells (C4-2B cells), the “synergy with MDV3100” value is “synergistic with MDV3100”. Further, the “cell proliferation inhibited, combination” value in the data set on C4-2B cells (C4-2B cells, 0.1 μM ASO in combination with […] MDV3100) stood at 75%. Moreover, the “inhibited cell proliferation, ASO alone” value in the data set with C4-2B cells (C4-2B cells, ASO alone at 0.1 μM) is recorded as 39%. Besides, the “reduced cell proliferation, ASO alone” value in the data set on C4-2B cells (C4-2B cells, ASO alone, 6 days, Table 46 (0.1 μM ASO)) was determined as 74%. The “prostate cancer cell proliferation, ASO in combination with MDV3100” value with C4-2B cells (C4-2B cells, versus equal molar ISIS 554221 + MDV3100) is “inhibited prostate cancer cell proliferation to a greater extent than an equal molar concentration of ISIS 554221 in combination of MDV3100”.

Regarding `CNC(=O)c1ccc(N2C(=S)N(c3ccc(C#N)c(C(F)(F)F)c3)C(=O)C2(C)C)cc1F` [MDV3100, 4-(3-(4-cyano-3-(trifluoromethyl)phenyl)-5,5-dimethyl-4-oxo-2-thioxoimidazolidin-1-yl)-2-fluoro-N-methylbenzamide, reference compound], the “Percent of gene expression, TMPRSS2” value in the data set with TMPRSS2 mRNA [1] (CSS + DHT medium, 0.04 μM) was determined as 17%; in the data set on TMPRSS2 mRNA [1] (CSS + DHT medium, 0.2 μM) it was 9%; in the data set on TMPRSS2 mRNA [1] (CSS + DHT medium, 1.0 μM), 26%; in the data set on TMPRSS2 mRNA [1] (CSS + DHT medium, 5.0 μM), 18%; in the data set with TMPRSS2 mRNA [1] (complete medium, 0.04 μM), 101%; in the data set with TMPRSS2 mRNA [1] (complete medium, 0.2 μM) it was 80%. In addition, the “Percent of gene expression, TMPRSS2” value in the data set with TMPRSS2 mRNA [1] (complete medium, 1.0 μM) is listed as 82%; in the data set on TMPRSS2 mRNA [1] (complete medium, 5.0 μM), 93%. The “Percent inhibition of TMPRSS2 expression in LNCaP cells cultured in CSS + DHT medium” value with TMPRSS2 mRNA [2] (0.04 μM) was 8%; with TMPRSS2 mRNA [2] (0.2 μM) it was 24%; in the data set on TMPRSS2 mRNA [2] (1 μM), 60%; in the data set on TMPRSS2 mRNA [2] (5.0 μM) it was 69%. For the same molecule, the “Percent inhibition of TMPRSS2 expression in LNCaP cells cultured in complete medium” value with TMPRSS2 mRNA [2] (0.04 μM) came to 0%; with TMPRSS2 mRNA [2] (0.2 μM) it was 0%; in the data set with TMPRSS2 mRNA [2] (1 μM) it was 34%; in the data set with TMPRSS2 mRNA [2] (5.0 μM), 39%. Besides, the “Percent inhibition of PSA expression” value in the data set on PSA mRNA (CSS + DHT medium, 0.04 μM) worked out at 0%; in the data set with PSA mRNA (CSS + DHT medium, 0.2 μM), 0%; in the data set on PSA mRNA (CSS + DHT medium, 1 μM) it was 37%; in the data set with PSA mRNA (CSS + DHT medium, 5.0 μM) it was 45%; in the data set on PSA mRNA (complete medium, 0.04 μM), 8%; with PSA mRNA (complete medium, 0.2 μM), 27%. Besides, the “Percent inhibition of PSA expression” value came out at 73% in the data set with PSA mRNA (complete medium, 1 μM) and 88% in the data set on PSA mRNA (complete medium, 5.0 μM). For the same molecule, the results for the inhibition at 1 µM with C4-2B cells (Table 46), in the data set on C4-2B cells (Table 47) and in the data set with 22RV1 cells were 38%, 46% and 5%, respectively. In addition, the “Percent inhibition of TMPRSS2 expression” value is 9% in the data set on TMPRSS2 mRNA [3] (0.04 μM), 0% in the data set on TMPRSS2 mRNA [3] (0.2 μM), 44% in the data set on TMPRSS2 mRNA [3] (1 μM) and 78% in the data set on TMPRSS2 mRNA [3] (5.0 μM). Further, the “Percent inhibition of TMPRSS2 expression in C4-2 cells cultured in complete medium” value is 10% in the data set on TMPRSS2 mRNA [3] (0.04 μM), 20% with TMPRSS2 mRNA [3] (0.2 μM), 44% in the data set with TMPRSS2 mRNA [3] (1 μM) and 67% with TMPRSS2 mRNA [3] (5.0 μM).
